Data from ChEMBL document CHEMBL5727406, “Positive allosteric modulators of the GLP-1 receptor” (2019).
pEC50: −log10 of the molar value.

Target: Glucagon-like peptide 1 receptor (Homo sapiens, UniProt P43220)
Experiment: GLP-1 Assay with EX-4 Synthetic Agonist: To assess the effects of test compounds on GLP-1 or glucagon potency and efficacy, a high-throughput calcium mobilization assay was used essentially as previously described (Morris L C, Days E L, Turney M, Mi D, Lindsley C W, Weaver C D, Niswender K D, A Duplexed High-Throughput Screen to Identify Allosteric Modulators of the Glucagon-Like Peptide 1 and Glucagon Receptors. J. Biomol. Screen. 2014 Feb. 13, 19(6):847-858). Briefly, human GLP-1R or Glucagon Receptor 9-3-H cells over-expressing a promiscuous G-protein (Millipore, Billerica, Mass.) were plated at 15,000 cells/well in black-walled 384-well plates (Greiner Bio-one, Monroe, N.C.) in Dulbecco's Modified Eagles Medium (DMEM) with 10% FCS, 4.0 mM L-glutamine, 1× non-essential amino acids (NEAAs), and 10.0 mM HEPES without antibiotics. After overnight attachment, cells were washed twice with assay buffer (HBSS supplemented with 20 mM HEPES and 1.0 mM probenecid) using an EL×405CW cell washer (Bio-Tek, Winooski, Vt.) and then loaded with the calcium sensitive dye fluo-4 AM (Invitrogen, Grand Island, N.Y.) at a final concentration of 2.0 μM in assay buffer. After a 45-minute incubation at room temperature, the dye was removed by washing, leaving 20 μL of assay buffer. […]

Glucagon-like peptide 1 receptor, sequence (P43220 whole entry): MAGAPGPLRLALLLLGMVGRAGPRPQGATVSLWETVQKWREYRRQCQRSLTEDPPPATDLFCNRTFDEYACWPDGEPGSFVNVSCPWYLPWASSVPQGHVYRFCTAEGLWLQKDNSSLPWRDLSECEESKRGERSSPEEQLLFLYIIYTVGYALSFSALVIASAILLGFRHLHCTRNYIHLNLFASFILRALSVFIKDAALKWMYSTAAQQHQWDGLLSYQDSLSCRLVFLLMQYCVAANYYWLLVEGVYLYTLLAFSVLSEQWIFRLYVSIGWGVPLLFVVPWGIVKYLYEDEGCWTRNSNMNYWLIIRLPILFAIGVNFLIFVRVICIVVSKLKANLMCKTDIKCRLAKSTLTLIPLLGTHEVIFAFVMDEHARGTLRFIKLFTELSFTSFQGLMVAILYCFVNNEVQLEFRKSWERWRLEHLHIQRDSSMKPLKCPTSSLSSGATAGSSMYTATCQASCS

For `Cc1c2ccccc2n2c(C(=O)NC[C@H]3CCCN3C(C)C)cn(C3CCCC3)c(=O)c12`, the pEC50 was < 4.52.
